Assay results taken from ChEMBL document CHEMBL3774345, “Synthesis of new diarylamides with pyrimidinyl pyridine scaffold and evaluation of their anti-proliferative effect on cancer cell lines” (Bioorg Med Chem Lett, 2016).

Experiments:
K562 [1] = test: Cytotoxicity against human K562 cells assessed as cell growth at 10^-7 M after 24 hrs by SRB assay; format: functional; conditions: K562, 24 h, read-out: Activity
MDA-MB-231 [2] = test: Cytotoxicity against human MDA-MB-231 cells assessed as cell growth at 10^-8 M after 24 hrs by SRB assay; format: functional; conditions: MDA-MB-231, 24 h, read-out: Activity
[3] = Cytotoxicity against human COLO205 cells assessed as cell growth at 10^-6 M after 24 hrs by SRB assay; format: functional; conditions: COLO 205, 24 h, read-out: Activity
[4] = Cytotoxicity against human SNB19 cells after 24 hrs by SRB assay; format: functional; conditions: SNB-19, 24 h
[5] = Cytotoxicity against human PC3 cells assessed as cell growth at 10^-5 M after 24 hrs by SRB assay; format: functional; conditions: PC-3, 24 h, read-out: Activity
[6] = Cytotoxicity against human RPMI8226 cells assessed as cell growth at 10^-5 M after 24 hrs by SRB assay; format: functional; conditions: RPMI-8226, 24 h, read-out: Activity
[7] = Cytotoxicity against human HL-60(TB) cells assessed as cell growth at 10^-5 M after 24 hrs by SRB assay; format: functional; conditions: HL-60, 24 h, read-out: Activity
MDA-MB-231 [8] = test: Cytotoxicity against human MDA-MB-231 cells assessed as cell growth at 10^-5 M after 24 hrs by SRB assay; format: functional; conditions: MDA-MB-231, 24 h, read-out: Activity
CCRF-CEM = test: Cytotoxicity against human CCRF-CEM cells assessed as cell growth at 10^-7 M after 24 hrs by SRB assay; format: functional; conditions: read-out: Activity
[9] = Cytotoxicity against human OVCAR8 cells assessed as cell growth at 10^-8 M after 24 hrs by SRB assay; format: functional; conditions: OVCAR-8, 24 h, read-out: Activity
MCF7 = test: Cytotoxicity against human MCF7 cells assessed as cell growth at 10^-7 M after 24 hrs by SRB assay; format: functional; conditions: MCF7, 24 h, read-out: Activity
[10] = Cytotoxicity against human LOXIMVI cells assessed as cell growth at 10^-7 M after 24 hrs by SRB assay; format: functional; conditions: LOX IMVI, read-out: Activity
M14 [11] = test: Cytotoxicity against human M14 cells assessed as cell growth at 10^-8 M after 24 hrs by SRB assay; format: functional; conditions: M14, 24 h, read-out: Activity
SK-MEL-2 [12] = test: Cytotoxicity against human SK-MEL-2 cells assessed as cell growth at 10^-6 M after 24 hrs by SRB assay; format: functional; conditions: SK-MEL-2, 24 h, read-out: Activity
[13] = Cytotoxicity against human COLO205 cells after 24 hrs by SRB assay; format: functional, cell-based; conditions: COLO 205, 24 h
[14] = Cytotoxicity against human SW620 cells assessed as cell growth at 10^-4 M after 24 hrs by SRB assay; format: functional; conditions: SW-620, 24 h, read-out: Activity
[15] = Cytotoxicity against human SF268 cells assessed as cell growth at 10^-7 M after 24 hrs by SRB assay; format: functional; conditions: SF-268, 24 h, read-out: Activity
K562 [16] = test: Cytotoxicity against human K562 cells assessed as cell growth at 10^-5 M after 24 hrs by SRB assay; format: functional; conditions: K562, 24 h, read-out: Activity
SK-MEL-2 [17] = test: Cytotoxicity against human SK-MEL-2 cells after 24 hrs by SRB assay; format: functional; conditions: SK-MEL-2, 24 h
[18] = Cytotoxicity against human DU145 cells assessed as cell growth at 10^-8 M after 24 hrs by SRB assay; format: functional; conditions: DU-145, 24 h, read-out: Activity
SR = test: Cytotoxicity against human SR cells assessed as cell growth at 10^-7 M after 24 hrs by SRB assay; format: functional; conditions: read-out: Activity
[19] = Cytotoxicity against human SKOV3 cells after 24 hrs by SRB assay; format: functional; conditions: SK-OV-3, 24 h
[20] = Cytotoxicity against human RXF393 cells assessed as cell growth at 10^-5 M after 24 hrs by SRB assay; format: functional; conditions: RXF 393, 24 h, read-out: Activity
[21] = Cytotoxicity against human SW620 cells assessed as cell growth at 10^-8 M after 24 hrs by SRB assay; format: functional; conditions: SW-620, 24 h, read-out: Activity
MDA-MB-435 = test: Cytotoxicity against human MDA-MB-435 cells assessed as cell growth at 10^-4 M after 24 hrs by SRB assay; format: functional; conditions: MDA-MB-435, 24 h, read-out: Activity
M14 [22] = test: Cytotoxicity against human M14 cells after 24 hrs by SRB assay; format: functional, cell-based; conditions: M14, 24 h
HT-29 = test: Cytotoxicity against human HT-29 cells assessed as cell growth at 10^-4 M after 24 hrs by SRB assay; format: functional; conditions: HT-29, 24 h, read-out: Activity
[23] = Cytotoxicity against human RXF393 cells assessed as cell growth at 10^-6 M after 24 hrs by SRB assay; format: functional; conditions: RXF 393, 24 h, read-out: Activity
NCI-H226 = test: Cytotoxicity against human NCI-H226 cells assessed as cell growth at 10^-8 M after 24 hrs by SRB assay; format: functional; conditions: NCI-H226, 24 h, read-out: Activity
[24] = Cytotoxicity against human Hs 578T cells assessed as cell growth at 10^-7 M after 24 hrs by SRB assay; format: functional; conditions: read-out: Activity
[25] = Cytotoxicity against human BT549 cells after 24 hrs by SRB assay; format: functional; conditions: BT-549, 24 h
[26] = Cytotoxicity against human Caki1 cells assessed as cell growth at 10^-7 M after 24 hrs by SRB assay; format: functional; conditions: CAKI-1, 24 h, read-out: Activity
[27] = Cytotoxicity against human SKOV3 cells assessed as cell growth at 10^-4 M after 24 hrs by SRB assay; format: functional; conditions: SK-OV-3, 24 h, read-out: Activity
[28] = Cytotoxicity against human TK10 cells assessed as cell growth at 10^-8 M after 24 hrs by SRB assay; format: functional; conditions: TK-10, 24 h, read-out: Activity
[29] = Cytotoxicity against human SNB75 cells assessed as growth inhibition at 10 uM after 24 hrs by SRB assay; format: functional; conditions: SNB-75, 24 h, read-out: GI
[30] = read-out: LC50 (the source's name)
[31] = read-out: pLC50 (the source's name) (converted)

## O=C(Nc1cc(-c2cccnc2)nc(NCCCN2CCOCC2)n1)c1cc(Br)cc(C(F)(F)F)c1
K562 [1]
  growth at 0.1 µM: 91%
MDA-MB-231 [2]
  growth at 0.01 µM: 90%
[3]
  growth at 1 µM: 92%
[4]; read-out: GI50
  GI50: 2.5 µM
[4]; [30]
  CC50: 21.5 µM
[4]; read-out: TGI
  TGI: 5.75 µM
[4]; read-out: pGI50 (converted)
  GI50: 2.51 µM
[4]; [31]
  CC50: 21.4 µM
[4]; read-out: pTGI (converted)
  TGI: 5.75 µM
[5]
  growth at 10 µM: 23%
[6]
  growth at 10 µM: -1%
[7]
  growth at 10 µM: -27%
MDA-MB-231 [8]
  growth at 10 µM: -59%
CCRF-CEM
  growth at 0.1 µM: 105%
[9]
  growth at 0.01 µM: 106%
MCF7
  growth at 0.1 µM: 89%
[10]
  growth at 0.1 µM: 92%
M14 [11]
  growth at 0.01 µM: 94%
SK-MEL-2 [12]
  growth at 1 µM: 94%
[13]; read-out: GI50
  GI50: 1.77 µM
[13]; [30]
  CC50: 6.79 µM
[13]; read-out: TGI
  TGI: 3.47 µM
[13]; read-out: pGI50 (converted)
  GI50: 1.78 µM
[13]; [31]
  CC50: 6.76 µM
[13]; read-out: pTGI (converted)
  TGI: 3.47 µM
[14]
  growth at 100 µM: -87%
[15]
  growth at 0.1 µM: 94%
K562 [16]
  growth at 10 µM: 4%
SK-MEL-2 [17]; read-out: GI50
  GI50: 4.52 µM
SK-MEL-2 [17]; [30]
  CC50: 45.8 µM
SK-MEL-2 [17]; read-out: TGI
  TGI: 17 µM
SK-MEL-2 [17]; read-out: pGI50 (converted)
  GI50: 4.47 µM
SK-MEL-2 [17]; [31]
  CC50: 45.7 µM
SK-MEL-2 [17]; read-out: pTGI (converted)
  TGI: 17 µM
[18]
  growth at 0.01 µM: 103%
SR
  growth at 0.1 µM: 106%
[19]; read-out: GI50
  GI50: 7.26 µM
[19]; [30]
  CC50: 44.9 µM
[19]; read-out: TGI
  TGI: 19.9 µM
[19]; read-out: pGI50 (converted)
  GI50: 7.24 µM
[19]; [31]
  CC50: 44.7 µM
[19]; read-out: pTGI (converted)
  TGI: 20 µM
[20]
  growth at 10 µM: -73%
[21]
  growth at 0.01 µM: 98%
MDA-MB-435
  growth at 100 µM: -100%
M14 [22]
  GI50: 1.66 µM
M14 [22]; [30]
  CC50: 6.59 µM
M14 [22]; read-out: TGI
  TGI: 3.32 µM
M14 [22]; [31]
  CC50: 6.61 µM
M14 [22]; read-out: pTGI (converted)
  TGI: 3.31 µM
HT-29
  growth at 100 µM: -83%
[23]
  growth at 1 µM: 92%
NCI-H226
  growth at 0.01 µM: 92%
[24]
  growth at 0.1 µM: 94%
[25]; read-out: GI50
  GI50: 3.27 µM
[25]; [30]
  CC50: 45 µM
[25]; read-out: TGI
  TGI: 15 µM
[25]; read-out: pGI50 (converted)
  GI50: 3.24 µM
[25]; [31]
  CC50: 44.7 µM
[25]; read-out: pTGI (converted)
  TGI: 15.1 µM
[26]
  growth at 0.1 µM: 90%
[27]
  growth at 100 µM: -99%
[28]
  growth at 0.01 µM: 91%

## COCCCNc1nc(NC(=O)c2cc(OC)cc(OC)c2)cc(-c2cccnc2)n1
[29]
  inhibition of growth at 10 µM: 26.9%
